Measurements reported in patent publication US12358943B1, “Method of synthesizing testosterone-based thiazolidinone derivatives” (IMAM MOHAMMAD IBN SAUD ISLAMIC UNIVERSITY, priority 2025, dated 2025).

What was measured:
Format in all cases: cell-based
[1] = test system: Staphylococcus aureus ATCC 6538-P; test: Disk diffusion agar antimicrobial activity, S. aureus; details: 25 mg/ml, 37° C. for 24 hours, mean values; for zone of inhibition at 25000 µg/mL: Staphylococcus aureus, ATCC6538, 24 h, read-out: Bacterial and fungal growth inhibition zone diameter (mm), S. aureus
Description: (§1) As used herein, “inhibition zone diameter” refers to a measurement that indicates how effective an antimicrobial is against a bacterium. The diameter of the zone of inhibition can be used to determine the level of sensitivity of the bacterium to the antimicrobial. In laboratory testing, such as the disk diffusion method (Kirby-Bauer test), a paper disk impregnated with the antimicrobial agent is placed on an agar plate inoculated with the microorganism. After incubation, the diameter of the clear zone (inhibition zone) around the disk is measured.
(§2) The reaction conditions and mechanisms are described in subsequent examples. The successful fabrication of the testosterone-based thiazolidinone derivatives was confirmed by different analytical techniques. The antimicrobial activity of newly prepared testosterone-based thiazolidinone derivatives was evaluated against various microorganisms, including Staphylococcus aureus ATCC 6538-P, Escherichia coli ATCC 25933, Candida albicans ATCC 10231, and Aspergillus niger NRRL-A326.
(§3) The antimicrobial activity of the synthesized testosterone-based thiazolidinone derivatives (compound (I), compound (II), and compound (III)) were assessed utilizing the disk diffusion agar methodology. Four representative microbial strains were selected for this study: Staphylococcus aureus ATCC 6538-P (Gram-positive), Escherichia coli ATCC 25933 (Gram-negative), Candida albicans ATCC 10231, and Aspergillus niger NRRL-A326. Nutrient agar plates were uniformly inoculated with 0.1 mL of a cell suspension at a density of […] to 10^6 cells/mL for both bacterial and yeast cultures. Following inoculation, samples were introduced onto the agar plates. The plates were subsequently incubated at refrigeration temperature (4° C.) for 2 to 4 hours to enhance the diffusion of the antimicrobial agents. Thereafter, the plates were incubated at 37° C. for 24 hours for bacterial growth and at 30° C. for 48 hours for yeast and fungal growth, maintaining an upright orientation to maximize the growth of the microorganisms. The antimicrobial activity of the testosterone-based thiazolidinone derivatives was quantified by measuring the diameter of the zone of inhibition, which was reported in millimeters (mm). The concentration of the tested testosterone-based thiazolidinone derivatives was 25 mg/ml. This experimental protocol was replicated multiple times, and the mean values of the observed readings were recorded.

[2] = test system: Escherichia coli ATCC 25933; test: Disk diffusion agar antimicrobial activity, E. coli; details: 25 mg/ml, 37° C. for 24 hours, mean values; for zone of inhibition at 25000 µg/mL: Escherichia coli, ATCC25933, 24 h, read-out: Bacterial and fungal growth inhibition zone diameter (mm), E. coli
Description: as §1, §2, §3

[3] = test system: Candida albicans ATCC 10231; test: Disk diffusion agar antimicrobial activity, C. albicans; details: 25 mg/ml, 30° C. for 48 hours, mean values; for zone of inhibition at 25000 µg/mL: Candida albicans, ATCC10231, 48 h, read-out: Bacterial and fungal growth inhibition zone diameter (mm), C. albicans
Description: as §1, §2, §3

[4] = test system: Aspergillus niger NRRL-A326; test: Disk diffusion agar antimicrobial activity, A. niger; details: 30° C. for 48 hours, mean values; for Bacterial and fungal growth inhibition zone diameter (mm), A. niger: 25 mg/ml; for zone of inhibition at 25000 µg/mL: Aspergillus niger, NRRLA326, 25 mg/ml, read-out: Bacterial and fungal growth inhibition zone diameter (mm), A. niger
Description: as §1, §2, §3

[5] = listed as compound III where Ar is 4-ClC6H4
[6] = listed as compound III where Ar is CH2C6H4
[7] = listed as compound III where Ar is C6H5

Compound	Bacterial and fungal growth inhibition zone diameter (mm), S. aureus [1] [mm]	Bacterial and fungal growth inhibition zone diameter (mm), S. aureus [1, 5]	Bacterial and fungal growth inhibition zone diameter (mm), E. coli [2] [mm]	Bacterial and fungal growth inhibition zone diameter (mm), E. coli [2, 5]	Bacterial and fungal growth inhibition zone diameter (mm), C. albicans [3] [mm]	Bacterial and fungal growth inhibition zone diameter (mm), C. albicans [3, 5]	Bacterial and fungal growth inhibition zone diameter (mm), A. niger [4] [mm]	Bacterial and fungal growth inhibition zone diameter (mm), A. niger [4, 5]	Bacterial and fungal growth inhibition zone diameter (mm), S. aureus [1, 6]	Bacterial and fungal growth inhibition zone diameter (mm), E. coli [2, 6]	Bacterial and fungal growth inhibition zone diameter (mm), C. albicans [3, 6]	Bacterial and fungal growth inhibition zone diameter (mm), A. niger [4, 6]	zone of inhibition at 25000 µg/mL [1] [mm]	zone of inhibition at 25000 µg/mL [2] [mm]	zone of inhibition at 25000 µg/mL [3] [mm]	zone of inhibition at 25000 µg/mL [4] [mm]	Bacterial and fungal growth inhibition zone diameter (mm), S. aureus [1, 7]	Bacterial and fungal growth inhibition zone diameter (mm), E. coli [2, 7]	Bacterial and fungal growth inhibition zone diameter (mm), C. albicans [3, 7]	Bacterial and fungal growth inhibition zone diameter (mm), A. niger [4, 7]
CC12CCC(=NN=C3NC(=O)C(CC(=O)Nc4ccc(Cl)cc4)S3)C=C1CCC1C2CCC2(C)C(O)CCC12 (centres unmarked) [Compound III Ar = 4-ClC6H4]	38	at least 38 mm	39	at least 39 mm	41	at least 41 mm	43	at least 43 mm												
CC12CCC(=NN=C3NC(=O)C(CC(=O)NCc4ccccc4)S3)C=C1CCC1C2CCC2(C)C(O)CCC12 (centres unmarked) [Compound III Ar = CH2C6H4]	19		17		21		44		at least 19 mm	at least 17 mm	at least 21 mm	at least 44 mm								
COC(=O)/C=C1/S/C(=N\N=C2\C=C3CC[C@H]4[C@@H]5CC[C@H](O)[C@@]5(C)CC[C@@H]4[C@@]3(C)CC2)NC1=O [Compound II]	29		26		29								≥ 29	≥ 26	≥ 29	0				
C[C@]12CC[C@H]3[C@@H](CCC4=C/C(=N/NC(N)=S)CC[C@@]43C)[C@@H]1CC[C@@H]2O [Compound I]													0	0	0	0				
CC12CCC(=NN=C3NC(=O)C(CC(=O)Nc4ccccc4)S3)C=C1CCC1C2CCC2(C)C(O)CCC12 (centres unmarked) [Compound III Ar = C6H5]	35		32		36		37										at least 35 mm	at least 32 mm	at least 36 mm	at least 37 mm
